Test results as given in patent US20230085307A1, “PYRIDAZINONE COMPOUND AND HERBICIDE” (NISSAN CHEMICAL CORPORATION, priority 2019, published 2023).

Key:
barnyard grass [1] = assay: Test Example 3: herbicidal effect by foliage application, Wagner pot (Table 18, symbol H); type: in vivo, barnyard grass (Echinochloa crus-galli); conditions: amount of applied herbicide 320 g/ha
Outline: (§1)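 Plants were sown in alluvial soil held under 0.1–0.5 cm standing water and grown 14 days in a greenhouse at 25–30 °C. An emulsifiable formulation, water-diluted to the set dose, was then sprayed onto the foliage, and effects were scored three weeks later using previously defined criteria.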

lambsquarters [2] = assay: Test Example 5: herbicidal effect by foliage application, plastic box (Table 20, symbol O); type: in vivo, lambsquarters (Chenopodium album); conditions: foliage application, 320 g/ha, three weeks after application
Outline: (§2)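 Plants sown in sterilized diluvial soil and grown 14 days in a greenhouse at 25° C to 30° C, then sprayed on the foliage with the compound's emulsion diluted in water to a predetermined herbicide amount. Injury to weeds and crops scored three weeks after application on a visual rating scale.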

wild oat [3] = assay: Test Example 4: herbicidal effect by soil treatment (Table 19, symbol I); type: in vivo, wild oat (Avena fatua); conditions: amount of applied herbicide 320 g/ha
Outline: (§3)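 Seeds were sown in sterilized diluvial soil and covered with about 1.5 cm of soil. An emulsion formulation diluted with water to a predetermined herbicide amount was sprayed evenly onto the soil surface. Plants grew in a greenhouse at 25° C. to 30° C., and the effect was scored three weeks after application using criteria from an earlier test.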

Italian ryegrass [4] = assay: Test Example 5: herbicidal effect by foliage application, plastic box (Table 20, symbol K); type: in vivo, Italian ryegrass (Lolium multiflorum); conditions: foliage application, 320 g/ha, three weeks after application
Outline: as §2

lambsquarters [5] = assay: Test Example 4: herbicidal effect by soil treatment (Table 19, symbol O); type: in vivo, lambsquarters (Chenopodium album); conditions: amount of applied herbicide 320 g/ha
Outline: as §3

persian speedwell [6] = assay: Test Example 4: herbicidal effect by soil treatment (Table 19, symbol R); type: in vivo, Persian speedwell (Veronica persica); conditions: amount of applied herbicide 320 g/ha
Outline: as §3

Chinese sprangletop = assay: Test Example 3: herbicidal effect by foliage application, Wagner pot (Table 18, symbol D); type: in vivo, chinese sprangletop (Leptochloa chinensis); conditions: amount of applied herbicide 320 g/ha
Outline: as §1

chickweed = assay: Test Example 4: herbicidal effect by soil treatment (Table 19, symbol P); type: in vivo, common chickweed (Stellaria media); conditions: amount of applied herbicide 320 g/ha
Outline: as §3

false cleavers = assay: Test Example 4: herbicidal effect by soil treatment (Table 19, symbol Q); type: in vivo, false cleavers (Galium spurium); conditions: amount of applied herbicide 320 g/ha
Outline: as §3

barnyard grass [7] = assay: Test Example 4: herbicidal effect by soil treatment (Table 19, symbol H); type: in vivo, barnyard grass (Echinochloa crus-galli); conditions: amount of applied herbicide 320 g/ha
Outline: as §3

southern crabgrass [8] = assay: Test Example 4: herbicidal effect by soil treatment (Table 19, symbol F); type: in vivo, southern crabgrass (Digitaria ciliaris); conditions: amount of applied herbicide 320 g/ha
Outline: as §3

barnyard grass [9] = assay: Test Example 5: herbicidal effect by foliage application, plastic box (Table 20, symbol H); type: in vivo, barnyard grass (Echinochloa crus-galli); conditions: foliage application, 320 g/ha, three weeks after application
Outline: as §2

southern crabgrass [10] = assay: Test Example 5: herbicidal effect by foliage application, plastic box (Table 20, symbol F); type: in vivo, southern crabgrass (Digitaria ciliaris); conditions: foliage application, 320 g/ha, three weeks after application
Outline: as §2

green foxtail [11] = assay: Test Example 5: herbicidal effect by foliage application, plastic box (Table 20, symbol G); type: in vivo, green foxtail (Setaria viridis); conditions: foliage application, 320 g/ha, three weeks after application
Outline: as §2

velvetleaf [12] = assay: Test Example 5: herbicidal effect by foliage application, plastic box (Table 20, symbol M); type: in vivo, velvetleaf (Abutilon theophrasti); conditions: foliage application, 320 g/ha, three weeks after application
Outline: as §2

blackgrass [13] = assay: Test Example 5: herbicidal effect by foliage application, plastic box (Table 20, symbol J); type: in vivo, blackgrass (Alopecurus myosuroides); conditions: foliage application, 320 g/ha, three weeks after application
Outline: as §2

Italian ryegrass [14] = assay: Test Example 4: herbicidal effect by soil treatment (Table 19, symbol K); type: in vivo, Italian ryegrass (Lolium multiflorum); conditions: amount of applied herbicide 320 g/ha
Outline: as §3

windgrass [15] = assay: Test Example 5: herbicidal effect by foliage application, plastic box (Table 20, symbol L); type: in vivo, windgrass (Apera spica-venti); conditions: foliage application, 320 g/ha, three weeks after application
Outline: as §2

persian speedwell [16] = assay: Test Example 5: herbicidal effect by foliage application, plastic box (Table 20, symbol R); type: in vivo, Persian speedwell (Veronica persica); conditions: foliage application, 320 g/ha, three weeks after application
Outline: as §2

green foxtail [17] = assay: Test Example 4: herbicidal effect by soil treatment (Table 19, symbol G); type: in vivo, green foxtail (Setaria viridis); conditions: amount of applied herbicide 320 g/ha
Outline: as §3

windgrass [18] = assay: Test Example 4: herbicidal effect by soil treatment (Table 19, symbol L); type: in vivo, windgrass (Apera spica-venti); conditions: amount of applied herbicide 320 g/ha
Outline: as §3

rice flat sedge = assay: Test Example 3: herbicidal effect by foliage application, Wagner pot (Table 18, symbol E); type: in vivo, rice flat sedge (Cyperus iria); conditions: amount of applied herbicide 320 g/ha
Outline: as §1

redroot pigweed = assay: Test Example 4: herbicidal effect by soil treatment (Table 19, symbol N); type: in vivo, redroot pigweed (Amaranthus retroflexus); conditions: amount of applied herbicide 320 g/ha
Outline: as §3

velvetleaf [19] = assay: Test Example 4: herbicidal effect by soil treatment (Table 19, symbol M); type: in vivo, velvetleaf (Abutilon theophrasti); conditions: amount of applied herbicide 320 g/ha
Outline: as §3

blackgrass [20] = assay: Test Example 4: herbicidal effect by soil treatment (Table 19, symbol J); type: in vivo, blackgrass (Alopecurus myosuroides); conditions: amount of applied herbicide 320 g/ha
Outline: as §3

wild oat [21] = assay: Test Example 5: herbicidal effect by foliage application, plastic box (Table 20, symbol I); type: in vivo, wild oat (Avena fatua); conditions: foliage application, 320 g/ha, three weeks after application
Outline: as §2

| SMILES | Herbicidal effect on H (barnyard grass), foliage application (barnyard grass [1]) | herbicidal effect on lambsquarters (O) (lambsquarters [2]) | I: wild oat, herbicidal effect grade (wild oat [3]) | herbicidal effect on Italian ryegrass (K) (Italian ryegrass [4]) | O: lambsquarters, herbicidal effect grade (lambsquarters [5]) | R: persian speedwell, herbicidal effect grade (persian speedwell [6]) | Herbicidal effect on D (Chinese sprangletop), foliage application (Chinese sprangletop) | P: chickweed, herbicidal effect grade (chickweed) | Q: false cleavers, herbicidal effect grade (false cleavers) | H: barnyard grass, herbicidal effect grade (barnyard grass [7]) | F: southern crabgrass, herbicidal effect grade (southern crabgrass [8]) | herbicidal effect on barnyard grass (H) (barnyard grass [9]) | herbicidal effect on southern crabgrass (F) (southern crabgrass [10]) | herbicidal effect on green foxtail (G) (green foxtail [11]) | herbicidal effect on velvetleaf (M) (velvetleaf [12]) | herbicidal effect on blackgrass (J) (blackgrass [13]) | K: Italian ryegrass, herbicidal effect grade (Italian ryegrass [14]) | herbicidal effect on windgrass (L) (windgrass [15]) | herbicidal effect on persian speedwell (R) (persian speedwell [16]) | G: green foxtail, herbicidal effect grade (green foxtail [17]) | other results |
| --- | --- | --- | --- | --- | --- | --- | --- | --- | --- | --- | --- | --- | --- | --- | --- | --- | --- | --- | --- | --- | --- |
| Cc1nn(C)c(=O)c(-c2c(-c3ccc(F)cc3)oc3ccc(F)cc23)c1O [9-014] | 3 (Herbicidal rate of 40% or more and less than 70%) | 4 (Herbicidal rate of 70% or more and less than 90%) | 1 (Herbicidal rate of 5% or more and less than 20%) | 5 (Herbicidal rate of 90% or more (almost completely withered)) | 3 (Herbicidal rate of 40% or more and less than 70%) | 4 (Herbicidal rate of 70% or more and less than 90%) | 3 (Herbicidal rate of 40% or more and less than 70%) | 5 (Herbicidal rate of 90% or more (almost completely withered)) | 0 (Herbicidal rate of 5% or less (almost no effect)) | 4 (Herbicidal rate of 70% or more and less than 90%) | 4 (Herbicidal rate of 70% or more and less than 90%) | 4 (Herbicidal rate of 70% or more and less than 90%) | 2 (Herbicidal rate of 20% or more and less than 40%) | 4 (Herbicidal rate of 70% or more and less than 90%) | 3 (Herbicidal rate of 40% or more and less than 70%) | 4 (Herbicidal rate of 70% or more and less than 90%) | 5 (Herbicidal rate of 90% or more (almost completely withered)) | 4 (Herbicidal rate of 70% or more and less than 90%) | 5 (Herbicidal rate of 90% or more (almost completely withered)) | 5 (Herbicidal rate of 90% or more (almost completely withered)) | L: windgrass, herbicidal effect grade (windgrass [18]): 0 (Herbicidal rate of 5% or less (almost no effect)); Herbicidal effect on E (rice flat sedge), foliage application (rice flat sedge): 5 (Herbicidal rate of 90% or more (almost completely withered)); N: redroot pigweed, herbicidal effect grade (redroot pigweed): 5 (Herbicidal rate of 90% or more (almost completely withered)); M: velvetleaf, herbicidal effect grade (velvetleaf [19]): 4 (Herbicidal rate of 70% or more and less than 90%); J: blackgrass, herbicidal effect grade (blackgrass [20]): 4 (Herbicidal rate of 70% or more and less than 90%); herbicidal effect on wild oat (I) (wild oat [21]): 3 (Herbicidal rate of 40% or more and less than 70%) |
| Cc1nn(C)c(=O)c(-c2c(-c3ccc(SC(C)C)cc3)oc3ccc(F)cc23)c1O [9-041] | 5 (Herbicidal rate of 90% or more (almost completely withered)) | 4 (Herbicidal rate of 70% or more and less than 90%) | 0 (Herbicidal rate of 5% or less (almost no effect)) | 5 (Herbicidal rate of 90% or more (almost completely withered)) | 4 (Herbicidal rate of 70% or more and less than 90%) | 4 (Herbicidal rate of 70% or more and less than 90%) | 2 (Herbicidal rate of 20% or more and less than 40%) | 1 (Herbicidal rate of 5% or more and less than 20%) | 0 (Herbicidal rate of 5% or less (almost no effect)) | 1 (Herbicidal rate of 5% or more and less than 20%) | 3 (Herbicidal rate of 40% or more and less than 70%) | 3 (Herbicidal rate of 40% or more and less than 70%) | 0 (Herbicidal rate of 5% or less (almost no effect)) | 4 (Herbicidal rate of 70% or more and less than 90%) | 3 (Herbicidal rate of 40% or more and less than 70%) | 3 (Herbicidal rate of 40% or more and less than 70%) | 5 (Herbicidal rate of 90% or more (almost completely withered)) | 4 (Herbicidal rate of 70% or more and less than 90%) | 5 (Herbicidal rate of 90% or more (almost completely withered)) | 4 (Herbicidal rate of 70% or more and less than 90%) | L: windgrass, herbicidal effect grade (windgrass [18]): 0 (Herbicidal rate of 5% or less (almost no effect)); Herbicidal effect on E (rice flat sedge), foliage application (rice flat sedge): 5 (Herbicidal rate of 90% or more (almost completely withered)); N: redroot pigweed, herbicidal effect grade (redroot pigweed): 5 (Herbicidal rate of 90% or more (almost completely withered)); M: velvetleaf, herbicidal effect grade (velvetleaf [19]): 1 (Herbicidal rate of 5% or more and less than 20%); J: blackgrass, herbicidal effect grade (blackgrass [20]): 0 (Herbicidal rate of 5% or less (almost no effect)); herbicidal effect on wild oat (I) (wild oat [21]): 3 (Herbicidal rate of 40% or more and less than 70%) |
